According to patent publication US6362369B1, “Phthalic acid diamide derivatives fluorine-containing aniline compounds as starting material, agricultural and horticultural insecticides, and a method for application of the insecticides” (Nihon Nohyaku Co., Ltd., priority 1997, dated 2002):

Legend:
Format in all cases: in vivo
[1] = test system: common cutworm (Spodoptera Litura); test: Insecticidal effect on common cutworm (Test Example 2); conditions: common cutworm second-instar larvae; cabbage leaf immersed, 500 ppm; eight days after inoculation; 25° C.
Outline: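 Insecticidal effect was rated from percent mortality of second-instar larvae exposed to air-dried treatment at 25° C for 8 days.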

[2] = test system: diamondback moth (Plutella xylostella); test: Insecticidal effect on diamondback moth (Test Example 1); conditions: diamondback moth; mortality judged by criterion of Test Example 1
Outline: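 Chinese cabbage seedlings carrying eggs laid by released adult moths were immersed in treatment, air-dried and held at 25° C. Hatched insects were counted six days after immersion, and mortality was calculated and scored against a fixed criterion. Three replicate groups of 10 insects were used.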

[3] = test system: rice leafroller (Cnaphalocrocis medinalis); test: Insecticidal effect on rice leafroller (Test Example 3); conditions: rice leafroller third-instar larvae; rice lamina immersed, 500 ppm; four days after inoculation; 25° C., humidity 70%
Outline: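 Groups of 10 third-instar larvae, in triplicate, are placed on air-dried lamina resting on wet filter paper. Incubation runs four days at 25° C with 70% humidity before survivors and dead are tallied.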

SMILES	Insecticidal effect, Test Example 2 [1]	Insecticidal effect, Test Example 1 [2]	Insecticidal effect, Test Example 3 [3]
CC(C)NC(=O)c1c(I)cccc1C(=O)Nc1ccc(F)cc1F [compound 1055]	A (100)	A (100)	A (100)
CCNC(=O)c1c(I)cccc1C(=O)Nc1ccc(OC(F)(F)C(F)F)cc1C [compound 1056]	A (100)	A (100)	A (100)
CCCNC(=O)c1c(I)cccc1C(=O)Nc1ccc(OC(F)(F)C(F)F)cc1C [compound 1058]	A (100)	A (100)	A (100)
Cc1cc(OC(F)(F)C(F)F)ccc1NC(=O)c1ccccc1C(=O)NC(C)(C)C [compound 1060]	A (100)	A (100)	A (100)
Cc1cc(OC(F)(F)C(F)F)ccc1NC(=O)c1cccc(Cl)c1C(=O)NC(C)(C)C [compound 1061]	A (100)	A (100)	A (100)
Cc1cc(OC(F)(F)C(F)F)ccc1NC(=O)c1cccc(I)c1C(=O)NC(C)(C)C [compound 1062]	A (100)	A (100)	A (100)
CC(C)(C)NC(=O)c1c(Cl)cccc1C(=O)Nc1ccc2c(c1)OC(F)(F)C(F)(F)O2 [compound 1066]	C (89-80)	A (100)	A (100)
CC(C)(C)NC(=O)c1c(I)cccc1C(=O)Nc1ccc2c(c1)OC(F)(F)C(F)(F)O2 [compound 1067]	A (100)	A (100)	A (100)
Cc1cc(C(F)(F)C(F)(F)F)ccc1NC(=O)c1cccc(I)c1C(=O)N(C)C [compound 1068]	A (100)	A (100)	A (100)
CCCN(C)C(=O)c1c(I)cccc1C(=O)Nc1ccc(C(F)(F)C(F)(F)F)cc1C [compound 1069]	A (100)	A (100)	A (100)
Cc1cc(C(F)(F)C(F)(F)F)ccc1NC(=O)c1cccc(I)c1C(=O)N1CCOCC1 [compound 1070]	A (100)	A (100)	A (100)
Cc1cc(C(F)(F)C(F)(F)F)ccc1NC(=O)c1ccccc1C(=O)N(C(C)C)C(C)C [compound 1071]	C (89-80)	A (100)	A (100)
CCNC(=O)c1c(I)cccc1C(=O)Nc1ccc(C(F)(C(F)(F)F)C(F)(F)F)cc1C [compound 1073]	A (100)	A (100)	A (100)
CCNC(=O)c1cccc(I)c1C(=O)Nc1ccc(C(F)(C(F)(F)F)C(F)(F)F)cc1C [compound 1074]	A (100)	A (100)	A (100)
CCCNC(=O)c1c(I)cccc1C(=O)Nc1ccc(C(F)(C(F)(F)F)C(F)(F)F)cc1C [compound 1075]	A (100)	A (100)	A (100)
CC(C)NC(=O)c1c(Cl)cccc1C(=O)Nc1ccc(S(=O)(=O)C(F)(F)F)cc1 [compound 1078]	A (100)	A (100)	A (100)
CC(C)NC(=O)c1c(I)cccc1C(=O)Nc1ccc(S(=O)(=O)C(F)(F)F)cc1 [compound 1079]	A (100)	A (100)	A (100)
CC(C)(C)NC(=O)c1c(I)cccc1C(=O)Nc1ccc(S(=O)(=O)C(F)(F)F)cc1 [compound 1080]	A (100)	A (100)	A (100)
Cc1cc(C(F)(F)C(F)(F)F)ccc1NC(=O)c1cccc(I)c1C(=O)N(C(C)C)C(C)C [compound 1081]	A (100)	A (100)	A (100)
Cc1cc(OC(F)(F)C(F)(F)c2ccccc2)ccc1NC(=O)c1cccc(Cl)c1C(=O)NC(C)C [compound 1087]	A (100)	A (100)	A (100)

SMILES	Insecticidal effect, Test Example 2 [1]	Insecticidal effect, Test Example 1 [2]	Insecticidal effect, Test Example 3 [3]
CC(C)NC(=O)c1c(C(=O)Nc2ccc3c(c2)OC(F)(F)O3)cccc1[N+](=O)[O-] [compound 1100]	C (89-80)	A (100)	A (100)
CC(C)NC(=O)c1c(Cl)cccc1C(=O)Nc1ccc2c(c1)OC(F)(F)O2 [compound 1101]	C (89-80)	A (100)	A (100)
CC(C)NC(=O)c1c(I)cccc1C(=O)Nc1ccc2c(c1)OC(F)(F)O2 [compound 1102]	A (100)	A (100)	A (100)
CC(C)(C)NC(=O)c1c(Cl)cccc1C(=O)Nc1ccc2c(c1)OC(F)(F)O2 [compound 1104]	A (100)	A (100)	A (100)
CC(C)(C)NC(=O)c1c(I)cccc1C(=O)Nc1ccc2c(c1)OC(F)(F)O2 [compound 1105]	A (100)	A (100)	A (100)
CC(C)NC(=O)c1c(Cl)cccc1C(=O)Nc1ccc(SC(F)(F)Br)cc1 [compound 1110]	C (89-80)	A (100)	A (100)
CC(C)NC(=O)c1c(I)cccc1C(=O)Nc1ccc(SC(F)(F)Br)cc1 [compound 1112]	A (100)	A (100)	A (100)
CC(C)NC(=O)c1c(I)cccc1C(=O)Nc1ccc([S+]([O-])C(F)(F)Br)cc1 (stereo not drawn) [compound 1113]	A (100)	A (100)	A (100)
CC(C)(C)NC(=O)c1c(Cl)cccc1C(=O)Nc1ccc(SC(F)(F)Br)cc1 [compound 1114]	A (100)	A (100)	A (100)
CC(C)(C)NC(=O)c1c(I)cccc1C(=O)Nc1ccc(SC(F)(F)Br)cc1 [compound 1115]	A (100)	A (100)	A (100)
Cc1cc(C(F)(F)C(F)(F)F)ccc1NC(=O)c1cccc(I)c1C(=O)N1CCCCCC1 [compound 1117]	A (100)	A (100)	A (100)
CCN(CC)C(=O)c1c(C(=O)Nc2ccc(OC(F)(F)F)cc2C)cccc1[N+](=O)[O-] [compound 1118]	A (100)	A (100)	A (100)
CCN(CC)C(=O)c1c(C(=O)Nc2ccc(C(F)(C(F)(F)F)C(F)(F)F)cc2C)cccc1[N+](=O)[O-] [compound 1119]	A (100)	A (100)	A (100)
Cc1cc(C(F)(F)C(F)(F)F)ccc1N(C)C(=O)c1cccc(I)c1C(=O)N(C)C [compound 1120]	A (100)	A (100)	A (100)
Cc1cc(C(F)(F)C(F)(F)F)ccc1N(C)C(=O)c1cccc(I)c1C(=O)N(C)C(C)C [compound 1121]	A (100)	A (100)	A (100)
CC(C)(C)NC(=O)c1c(I)cccc1C(=O)Nc1ccc(SC(F)(F)F)cc1 [compound 1127]	A (100)	A (100)	A (100)
CCN(CC)C(=O)c1c(I)cccc1C(=O)Nc1ccc(SC(F)(F)F)cc1 [compound 1128]	A (100)	A (100)	A (100)
CCN(CC)C(=O)c1c(I)cccc1C(=O)Nc1ccc2c(c1)OC(F)(F)O2 [compound 1129]	A (100)	A (100)	A (100)
CCN(CC)C(=O)c1c(I)cccc1C(=O)Nc1ccc(C(O)(C(F)(F)F)C(F)(F)F)cc1 [compound 1130]	A (100)	A (100)	A (100)
Cc1cc(C(F)(F)F)ccc1NC(=O)c1cccc(I)c1C(=O)NC(C)(C)C [compound 1141]	A (100)	A (100)	A (100)
